{
  "source": "patent US5496703A",
  "about": "“Indirect immunoassay for dioxinlike compounds” (priority 1993, dated 1996)",
  "key": {"[1]": {"test_system": "protein tyrosylphosphorylation of hepatic S-9 proteins", "assay": "Immunoblot / densitometry of hepatic S-9 phosphotyrosyl proteins, mice dosed i.p.", "assay_type": "in vivo, C57BL/6 mice", "experimental": "(§1) Female, C57BL/6 mice (or any cytochrome P-450IA1 inducible strain) were obtained from Harton Sprague Dawley (Indianapolis, Ind.). Experiments were performed using four to six week old, female mice weighing approximately 16 to 20 g. Mice were fed Prolab RMH 1000 rat, mouse and hamster food (Agway, Cortland, N.Y.) and received tap water ad libitum. All mice were housed three to five per cage and maintained on a photoperiod of 12 hours. Mice were killed 24 hours following an intraperitoneal injection of either corn oil alone or TCDD (Analabs) at 0.25, 0.5, 1, 2, 4, 10, 50 μg/kg, the volume of the injections ranged from 0.1 to 0.2 ml per mouse. Hepatic S-9 fractions were prepared by homogenizing the liver in 3 times the volume of 0.15M KCl. Following a 9000×g centrifugation for 20 minutes, the supernatant (S-9) fraction was carefully removed and quickly frozen for storage at -80° C.\nThe separation of S-9 proteins by means of SDS PAGE was performed by mixing the S-9 1:1 with a double strength sodium dodecyl sulfate sample buffer and heating the solution at 100° C. for 3 minutes prior to one-dimensional SDS polyacrylamide gel electrophoresis with 10% polyacrylamide. After electrophoresis, a Milliblot SDS electroblot apparatus (Millipore, Bedford, Mass.) was used to transfer the proteins from the polyacrylamide gels to an Immobilon™ membrane filter (Millipore). Complete transfers were accomplished in 25-30 minutes at 500 mA and were assessed by tracking pre-stained molecular weight standards onto the membrane filter. Membrane filters were blocked by incubating in TBS (Tris buffered saline) containing 5% milk for 30 minutes at 37° C. The membranes were then washed in TBST (TBS with 0.05% Tween 20) and incubated overnight with antiphosphotyrosine monoclonal antibody (1.5 μg/mL) in TBST. The primary antibody was removed, and the membranes were washed four times in TBST. To visualize the antibody reaction, the membranes were incubated for 3 hours at 37° C. with alkaline phosphatase-conjugated antimouse IgG diluted 1:1000 in TBST, washed 3 times in TBST, and developed for 15 to 30 minutes. Determination of molecular weights of immuno-stained proteins was performed by adding molecular weight standards (Bio Rad) to reference lanes and staining the membrane filters with amido black.\nThe indicated densitometric measurements were made on a BioImage AK Kodak Visage 110.\nAn estimate of the limit of detection of dioxinlike activity can be made using the 0.25 μg/kg dose as the minimally effective dose. At this level of administration of TCDD, the 37 kDalton band becomes easily visible. Assuming a 20 g mouse, the diethyl ether extract would have to contain 5 ng of dioxin equivalents to initiate a tryosylphosphorylation of the 37 kDalton protein. […]"}, "[2]": {"molecular_target": "Ah receptor", "settings": "cited from earlier work"}, "[3]": {"test_system": "cytochrome P-450IA1", "assay": "Ethoxyresorufin O-deethylase assay (EROD), hepatic S-9, mice dosed i.p.", "assay_type": "in vivo, C57BL/6 mice", "settings": "hepatic S-9, i.p., 24 hours after dosing", "experimental": "as §1, with “Hepatic S-9 fractions were prepared by homogenizing the liver in 3 times the volume of 0.15M KCl. Following a 9000×g centrifugation for 20 minutes, the supernatant (S-9) fraction was carefully removed and quickly frozen for storage at -80° C.” left out\nResorufin (hydroxyphenoxazone) and ethoxyresorufin was purchased from Molecular Probes (Junction City, Oreg.). EROD was measured by following the increase in fluorescence due to the formation of resorufin by dealkylation of its ethoxy derivative. […] A baseline of fluorescence was recorded at an excitation wavelength of 530 nm and an emission wavelength of 585 nm. The reaction was started with the addition of NADPH and the dealkylation of the derivative to resorufin was followed by a progressive increase in fluorescence as resorufin was generated. Recordings were standardized by measuring the fluorescence of freshly generated resorufin from resorufin acetate (Sigma, St. Louis, Mo.) prior to each assay. […]"}, "[4]": {"test_system": "hepatic Ah receptor", "settings": "room temperature, ligand concentration 10^-9 M; cited from earlier work"}},
  "note": "“Also recorded” adds a separate entry of the source.",
  "data": [
    {"smiles": "Clc1cc2c(cc1Cl)Oc1cc(Cl)c(Cl)cc1O2", "note": "[TCDD, 2,3,7,8-tetrachlorodibenzo-p-dioxin]", "values": [
      {"measurement": "minimal effective dose", "setting": "[1]; Mus musculus, ip, 24 h, in vivo limit-of-detection estimate, read-out: minimally effective dose (37 kDalton band easily visible)", "value": 0.25, "unit": "µg/kg"},
      {"measurement": "ED50", "setting": "[1]; Mus musculus, ip, densitometry of immunoblot, i.p., 24 hours after dosing, read-out: ED50, 44 kDalton protein tyrosylphosphorylation", "value": 0.5, "unit": "µg/kg"},
      {"measurement": "dose of maximal 44 kDalton protein tyrosylphosphorylation", "setting": "[1]; densitometry of immunoblot, i.p., 24 hours after dosing", "value": 1, "unit": "μg TCDD/kg"},
      {"measurement": "tyrosylphosphorylation of the 37 kDalton protein", "setting": "[1]; immunoblot, i.p., 24 hours", "value": "resulted in the tyrosylphosphorylation of the 37 kDalton protein; also recorded: highly phosphorylated at tyrosine residues"},
      {"measurement": "equilibrium dissociation constant (Kd), earlier Scatchard analysis", "setting": "[2]; almost all Ah receptors studied", "value": "nM range"},
      {"measurement": "Kd, newer experimental approaches", "setting": "[2]", "value": "pM range"},
      {"measurement": "binding affinity to Ah receptor", "setting": "[2]", "value": "binds most strongly"},
      {"measurement": "ED50, cytochrome P-450IA1 expression (EROD)", "setting": "[3]", "value": 5, "unit": "μg TCDD/kg"},
      {"measurement": "dose of maximal EROD activity", "setting": "[3]", "value": 50, "unit": "μg TCDD/kg"},
      {"measurement": "saturation half-life of binding", "setting": "[4]", "value": "less than 1 hour"}
    ]}
  ]
}
